From the NIST ThermoML archive (doi:10.1021/je7004374)
± gives the expanded uncertainty stated by the source.

Assays:
[1] = Liquid; for speed of sound: Sing-around technique in a fixed-path interferometer
[2] = refractive index (Na D-line) (dimensionless); conditions: 298.15 K; 101.33 kPa; Liquid; Standard Abbe refractometry

OCCCO [propan-1,3-diol]
[1]
Conditions | mass density [kg/m3] | speed of sound [m/s]
283.16 K, 101.33 kPa | 1059.09 ± 0.66 | –
288.15 K, 101.33 kPa | 1056 ± 0.65 | –
292.88 K, 30390 kPa | – | 1721.7 ± 2.4
292.89 K, 15200 kPa | – | 1681.2 ± 2.4
292.89 K, 45590 kPa | – | 1760.3 ± 2.4
292.89 K, 60790 kPa | – | 1797 ± 2.4
292.89 K, 75990 kPa | – | 1832.2 ± 2.4
292.89 K, 91180 kPa | – | 1865.9 ± 2.5
292.89 K, 101320 kPa | – | 1887.8 ± 2.5
292.91 K, 100 kPa | – | 1636.5 ± 1.8
293.15 K, 100 kPa | 1052.91 ± 0.64 | –
293.15 K, 101.33 kPa | – | 1636 ± 1.8
293.15 K, 10000 kPa | 1057 ± 0.82 | –
293.15 K, 20000 kPa | 1060.96 ± 1 | –
293.15 K, 30000 kPa | 1064.8 ± 1.3 | –
293.15 K, 40000 kPa | 1068.51 ± 1.5 | –
293.15 K, 50000 kPa | 1072.11 ± 1.8 | –
293.15 K, 60000 kPa | 1075.61 ± 2.1 | –
293.15 K, 70000 kPa | 1079.02 ± 2.4 | –
293.15 K, 80000 kPa | 1082.34 ± 2.8 | –
293.15 K, 90000 kPa | 1085.57 ± 3.1 | –
293.15 K, 100000 kPa | 1088.73 ± 3.5 | –
293.16 K, 101.33 kPa | 1052.89 ± 0.64 | –
298.15 K, 100 kPa | 1049.81 ± 0.62 | –
298.15 K, 101.33 kPa | 1049.78 ± 0.63 | 1624.5 ± 1.8
298.15 K, 10000 kPa | 1053.95 ± 0.8 | –
298.15 K, 20000 kPa | 1057.97 ± 1 | –
298.15 K, 30000 kPa | 1061.86 ± 1.2 | –
298.15 K, 40000 kPa | 1065.62 ± 1.5 | –
298.15 K, 50000 kPa | 1069.27 ± 1.8 | –
298.15 K, 60000 kPa | 1072.82 ± 2.1 | –
298.15 K, 70000 kPa | 1076.26 ± 2.4 | –
298.15 K, 80000 kPa | 1079.62 ± 2.7 | –
298.15 K, 90000 kPa | 1082.89 ± 3 | –
298.15 K, 100000 kPa | 1086.09 ± 3.4 | –
298.16 K, 75990 kPa | – | 1821.4 ± 2.4
298.16 K, 91180 kPa | – | 1855.4 ± 2.5
298.16 K, 101320 kPa | – | 1877.2 ± 2.5
298.17 K, 100 kPa | – | 1624.5 ± 1.8
298.17 K, 15200 kPa | – | 1668.7 ± 2.4
298.17 K, 30390 kPa | – | 1709.9 ± 2.4
298.17 K, 45590 kPa | – | 1748.8 ± 2.4
298.17 K, 60790 kPa | – | 1786 ± 2.4
303.14 K, 101320 kPa | – | 1868 ± 2.5
303.15 K, 100 kPa | 1046.7 ± 0.61 | 1613.2 ± 1.8
303.15 K, 101.33 kPa | – | 1613.2 ± 1.8
303.15 K, 10000 kPa | 1050.89 ± 0.78 | –
303.15 K, 20000 kPa | 1054.96 ± 0.98 | –
303.15 K, 30000 kPa | 1058.9 ± 1.2 | –
303.15 K, 40000 kPa | 1062.72 ± 1.4 | –
303.15 K, 45590 kPa | – | 1738.6 ± 2.4
303.15 K, 50000 kPa | 1066.41 ± 1.7 | –
303.15 K, 60000 kPa | 1070 ± 2 | –
303.15 K, 60790 kPa | – | 1776 ± 2.4
303.15 K, 70000 kPa | 1073.49 ± 2.3 | –
303.15 K, 75990 kPa | – | 1811.7 ± 2.4
303.15 K, 80000 kPa | 1076.89 ± 2.6 | –
303.15 K, 90000 kPa | 1080.2 ± 3 | –
303.15 K, 91180 kPa | – | 1845.8 ± 2.5
303.15 K, 100000 kPa | 1083.43 ± 3.3 | –
303.16 K, 101.33 kPa | 1046.65 ± 0.62 | –
303.16 K, 15200 kPa | – | 1657.6 ± 2.4
303.16 K, 30390 kPa | – | 1699 ± 2.4
308.13 K, 100 kPa | – | 1601.9 ± 1.8
308.15 K, 100 kPa | 1043.56 ± 0.6 | –
308.15 K, 101.33 kPa | – | 1601.8 ± 1.8
308.15 K, 10000 kPa | 1047.8 ± 0.76 | –
308.15 K, 15200 kPa | – | 1646.6 ± 2.4
308.15 K, 20000 kPa | 1051.94 ± 0.95 | –
308.15 K, 30000 kPa | 1055.93 ± 1.2 | –
308.15 K, 30390 kPa | – | 1688.4 ± 2.4
308.15 K, 40000 kPa | 1059.79 ± 1.4 | –
308.15 K, 45590 kPa | – | 1728.4 ± 2.4
308.15 K, 50000 kPa | 1063.54 ± 1.6 | –
308.15 K, 60000 kPa | 1067.17 ± 1.9 | –
308.15 K, 60790 kPa | – | 1766 ± 2.4
308.15 K, 70000 kPa | 1070.71 ± 2.2 | –
308.15 K, 75990 kPa | – | 1802 ± 2.4
308.15 K, 80000 kPa | 1074.14 ± 2.5 | –
308.15 K, 90000 kPa | 1077.49 ± 2.9 | –
308.15 K, 91180 kPa | – | 1836.6 ± 2.5
308.15 K, 100000 kPa | 1080.76 ± 3.2 | –
308.15 K, 101320 kPa | – | 1858.8 ± 2.5
308.16 K, 101.33 kPa | 1043.52 ± 0.6 | –
313.12 K, 100 kPa | – | 1590.5 ± 1.8
313.12 K, 91180 kPa | – | 1827.4 ± 2.5
313.12 K, 101320 kPa | – | 1849.7 ± 2.5
313.13 K, 30390 kPa | – | 1678 ± 2.4
313.13 K, 45590 kPa | – | 1718.2 ± 2.4
313.13 K, 60790 kPa | – | 1756.4 ± 2.4
313.13 K, 75990 kPa | – | 1792.6 ± 2.4
313.14 K, 15200 kPa | – | 1635.8 ± 2.4
313.15 K, 100 kPa | 1040.39 ± 0.59 | –
313.15 K, 101.33 kPa | 1040.36 ± 0.59 | 1590.5 ± 1.8
313.15 K, 10000 kPa | 1044.7 ± 0.74 | –
313.15 K, 20000 kPa | 1048.89 ± 0.92 | –
313.15 K, 30000 kPa | 1052.94 ± 1.1 | –
313.15 K, 40000 kPa | 1056.85 ± 1.4 | –
313.15 K, 50000 kPa | 1060.65 ± 1.6 | –
313.15 K, 60000 kPa | 1064.33 ± 1.9 | –
313.15 K, 70000 kPa | 1067.9 ± 2.2 | –
313.15 K, 80000 kPa | 1071.38 ± 2.5 | –
313.15 K, 90000 kPa | 1074.77 ± 2.8 | –
313.15 K, 100000 kPa | 1078.07 ± 3.1 | –
318.15 K, 100 kPa | 1037.21 ± 0.58 | –
318.15 K, 101.33 kPa | 1037.19 ± 0.58 | 1579.2 ± 1.8
318.15 K, 10000 kPa | 1041.57 ± 0.72 | –
318.15 K, 20000 kPa | 1045.83 ± 0.89 | –
318.15 K, 30000 kPa | 1049.93 ± 1.1 | –
318.15 K, 40000 kPa | 1053.9 ± 1.3 | –
318.15 K, 50000 kPa | 1057.74 ± 1.5 | –
318.15 K, 60000 kPa | 1061.47 ± 1.8 | –
318.15 K, 70000 kPa | 1065.09 ± 2.1 | –
318.15 K, 80000 kPa | 1068.61 ± 2.4 | –
318.15 K, 90000 kPa | 1072.03 ± 2.7 | –
318.15 K, 100000 kPa | 1075.37 ± 3 | –
318.3 K, 100 kPa | – | 1578.9 ± 1.8
318.31 K, 30390 kPa | – | 1667.3 ± 2.4
318.31 K, 45590 kPa | – | 1708 ± 2.4
318.31 K, 60790 kPa | – | 1746.3 ± 2.4
318.31 K, 75990 kPa | – | 1783.1 ± 2.4
318.31 K, 91180 kPa | – | 1818 ± 2.5
318.31 K, 101320 kPa | – | 1840.6 ± 2.5
318.32 K, 15200 kPa | – | 1624.6 ± 2.4
323.15 K, 101.33 kPa | 1034 ± 0.57 | –
328.16 K, 101.33 kPa | 1030.79 ± 0.56 | –
333.15 K, 101.33 kPa | 1027.56 ± 0.55 | –
338.15 K, 101.33 kPa | 1024.3 ± 0.54 | –
343.15 K, 101.33 kPa | 1021.01 ± 0.53 | –
348.15 K, 101.33 kPa | 1017.69 ± 0.52 | –
353.15 K, 101.33 kPa | 1014.34 ± 0.5 | –
358.15 K, 101.33 kPa | 1010.96 ± 0.49 | –
363.15 K, 101.33 kPa | 1007.54 ± 0.48 | –

Conditions | refractive index
[2] | 1.438 ± 0.0008
